Assay results reported in ChEMBL document CHEMBL1201862, “PubChem BioAssay data set” (2004).
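Results reflect a 48-hour exposure of cells in 96-well plates to compound at five concentrations. GI50: concentration for 50% inhibition of growth.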 The source made the active and inactive calls. Cut-off read from the data, not from the text of the source: active = GI50 up to about 1.1 µM and inactive = higher.

How the values were obtained:
Assay in all cases: inhibition of tumour cell growth, NCI panel, 48 h
A549 = test system: A549
DU-145 = test system: DU-145
EKVX = test system: EKVX
HL-60 = test system: HL-60
HT-29 = test system: HT-29
MCF7 = test system: MCF7
MDA-MB-435 = test system: MDA-MB-435
MDA-N = test system: MDA-N
Malme-3M = test system: Malme-3M
NCI-H522 = test system: NCI-H522
NCI/ADR-RES = test system: NCI/ADR-RES
OVCAR-4 = test system: OVCAR-4
SN12C = test system: SN12C
SNB-19 = test system: SNB-19
SR = test system: SR
T47D = test system: T47D
A498 = test system: A498
CCRF-CEM = test system: CCRF-CEM

Structure (SMILES)	GI50 (A549)	GI50 (DU-145)	GI50 (EKVX)	GI50 (HL-60)	GI50 (HT-29)	GI50 (MCF7)	GI50 (MDA-MB-435)	GI50 (MDA-N)	GI50 (Malme-3M)	GI50 (NCI-H522)	GI50 (NCI/ADR-RES)	GI50 (OVCAR-4)	GI50 (SN12C)	GI50 (SNB-19)	GI50 (SR)	GI50 (T47D)	GI50 (A498)	GI50 (CCRF-CEM)
O=C(Nc1ccc2ncccc2c1)c1cc2c(cc1Cl)Sc1nccn1S2(=O)=O	17.5 µM (inactive)	14.3 µM (inactive)	19.1 µM (inactive)	9.27 µM (inactive)	16.7 µM (inactive)	6.12 µM (inactive)	4 µM (inactive)	5.56 µM (inactive)	16.7 µM (inactive)	8.97 µM (inactive)	19 µM (inactive)	26.2 µM (inactive)	17.5 µM (inactive)	16.4 µM (inactive)	4.36 µM (inactive)	14.7 µM (inactive)		
CC(=O)/C=c1\[nH]/c(=C\C=C\c2ccccc2)c(=O)n1/C=C1\C(=O)Oc2ccccc2C1=O	> 100 µM (inactive)	> 100 µM (inactive)	40.6 µM (inactive)	> 100 µM (inactive)	> 100 µM (inactive)	> 100 µM (inactive)	> 100 µM (inactive)	> 100 µM (inactive)	> 100 µM (inactive)	> 100 µM (inactive)	> 100 µM (inactive)	> 100 µM (inactive)		> 100 µM (inactive)	> 100 µM (inactive)		15.3 µM (inactive)	> 100 µM (inactive)
Cc1cc(C)nc(NC(P(=O)(O)O)P(=O)(O)O)n1	> 100 µM (inactive)	> 100 µM (inactive)	> 100 µM (inactive)		> 100 µM (inactive)	> 100 µM (inactive)		> 100 µM (inactive)	> 100 µM (inactive)	> 100 µM (inactive)	> 100 µM (inactive)			> 100 µM (inactive)				
Cc1ccc2c(c1C)CC1(Cc3ccc(C)c(C)c3C1=O)C2=O (stereo unspecified)	35.7 µM (inactive)	> 100 µM (inactive)	44.2 µM (inactive)	94.6 µM (inactive)		66.8 µM (inactive)	> 100 µM (inactive)	> 100 µM (inactive)	> 100 µM (inactive)	> 100 µM (inactive)	> 100 µM (inactive)	33.7 µM (inactive)	> 100 µM (inactive)	59.6 µM (inactive)	> 100 µM (inactive)	> 100 µM (inactive)		> 100 µM (inactive)
Cn1c([C@H](C#N)c2ncccc2[N+](=O)[O-])nc2ccccc21	83.9 µM (inactive)		56 µM (inactive)	> 100 µM (inactive)	> 100 µM (inactive)	21 µM (inactive)	> 100 µM (inactive)	> 100 µM (inactive)	83.2 µM (inactive)	14.4 µM (inactive)	78.2 µM (inactive)			50 µM (inactive)	> 100 µM (inactive)		> 100 µM (inactive)	0.632 µM (active)
C[C@@H](O)C(=O)N1[C@@H]2CC3CC[C@]2(CS1(=O)=O)C3(C)C	95.1 µM (inactive)	88.1 µM (inactive)	89.7 µM (inactive)	28.9 µM (inactive)	> 100 µM (inactive)	> 100 µM (inactive)	63.8 µM (inactive)				> 100 µM (inactive)	85.9 µM (inactive)	55.5 µM (inactive)	65.8 µM (inactive)	18 µM (inactive)	> 100 µM (inactive)		24.2 µM (inactive)
O=C(O)c1nc(-c2ccccn2)c(-c2ccccn2)nc1C(=O)O	1.12 µM (inactive)	2.47 µM (inactive)	1.88 µM (inactive)	2.25 µM (inactive)	2.7 µM (inactive)		3.62 µM (inactive)	2.2 µM (inactive)	1.66 µM (inactive)	4.28 µM (inactive)	2.75 µM (inactive)	2 µM (inactive)	3.27 µM (inactive)	5.04 µM (inactive)	2.03 µM (inactive)	5.19 µM (inactive)	1.61 µM (inactive)	2.44 µM (inactive)
C=C1C2CC3CCC2C(OC(=O)c2ccccc2C(=O)O)C13 (stereo unspecified)	> 100 µM (inactive)	> 100 µM (inactive)	> 100 µM (inactive)	> 100 µM (inactive)	> 100 µM (inactive)		> 100 µM (inactive)	> 100 µM (inactive)	> 100 µM (inactive)	> 100 µM (inactive)	> 100 µM (inactive)	> 100 µM (inactive)	> 100 µM (inactive)	> 100 µM (inactive)	> 100 µM (inactive)	> 100 µM (inactive)	> 100 µM (inactive)	> 100 µM (inactive)
C[C@H]1[C@H](C)CC[C@]2(C)CC[C@]3(C)C(=C[C@@H](O)[C@@H]4[C@@]5(C)[C@H](O)[C@@H](O)[C@H](O)C(C)(C)[C@@H]5CC[C@]43C)[C@H]12	> 100 µM (inactive)	> 100 µM (inactive)		> 100 µM (inactive)	> 100 µM (inactive)	> 100 µM (inactive)	> 100 µM (inactive)	> 100 µM (inactive)			> 100 µM (inactive)		> 100 µM (inactive)	> 100 µM (inactive)	> 100 µM (inactive)		> 100 µM (inactive)	> 100 µM (inactive)
O=C(Nc1ccccc1)OCCN=c1c2ccccc2ccc2ccccc12	19.9 µM (inactive)	28.8 µM (inactive)	24.9 µM (inactive)	17 µM (inactive)	17.2 µM (inactive)	> 10 µM (inactive)	27.6 µM (inactive)	18.5 µM (inactive)	18.7 µM (inactive)		21.3 µM (inactive)	25.8 µM (inactive)	25.5 µM (inactive)	15.9 µM (inactive)	18.2 µM (inactive)	13.1 µM (inactive)		18.9 µM (inactive)
Cn1/c(=N\N=C(\CNCCO)[C@@H](O)[C@@H]2OC(c3ccccc3)OC[C@H]2O)sc2ccccc21 (stereo partly specified)	15.8 µM (inactive)	18.5 µM (inactive)	15.4 µM (inactive)		18.6 µM (inactive)	16.7 µM (inactive)	17.9 µM (inactive)	17.6 µM (inactive)	17.7 µM (inactive)	17.6 µM (inactive)	50.7 µM (inactive)	23.9 µM (inactive)	17.9 µM (inactive)	12.8 µM (inactive)	19 µM (inactive)	20.1 µM (inactive)		17.8 µM (inactive)
C[C@]12CCC(=O)C=C1CC[C@@H]1[C@@H]2CC[C@]2(C)C(=O)[C@H](n3ccnc3)C[C@@H]12	> 100 µM (inactive)	> 100 µM (inactive)	> 100 µM (inactive)	21.9 µM (inactive)	27.4 µM (inactive)	> 100 µM (inactive)	> 100 µM (inactive)	> 100 µM (inactive)	> 100 µM (inactive)	> 100 µM (inactive)	> 100 µM (inactive)	> 100 µM (inactive)	> 100 µM (inactive)	> 100 µM (inactive)	74.1 µM (inactive)		> 100 µM (inactive)	58.6 µM (inactive)
CN(C)C1(N(C)C)Oc2c(c(=O)n(C)c(=O)n2C)C(c2ccccc2Br)C1(F)F (stereo unspecified)	> 100 µM (inactive)	> 100 µM (inactive)	> 100 µM (inactive)			> 100 µM (inactive)	> 100 µM (inactive)				> 100 µM (inactive)	> 100 µM (inactive)		> 100 µM (inactive)		> 100 µM (inactive)	> 100 µM (inactive)	> 100 µM (inactive)
Cc1cn(C(=O)NC23CC4CC(CC(C4)C2)C3)c(=O)[nH]c1=O	35.9 µM (inactive)	> 100 µM (inactive)	23.9 µM (inactive)	26.4 µM (inactive)	33.8 µM (inactive)	31.6 µM (inactive)	61.4 µM (inactive)	13.2 µM (inactive)	44.7 µM (inactive)		27.4 µM (inactive)	38.7 µM (inactive)	25.4 µM (inactive)	71.1 µM (inactive)		31.3 µM (inactive)		25.6 µM (inactive)
CC(C)(C)OC(=O)/C=C/C(=O)O/C=C/[N+](=O)[O-]	> 100 µM (inactive)	> 100 µM (inactive)	> 100 µM (inactive)		> 100 µM (inactive)	> 100 µM (inactive)	> 100 µM (inactive)	> 100 µM (inactive)		> 100 µM (inactive)			> 100 µM (inactive)		18.2 µM (inactive)		> 100 µM (inactive)	> 100 µM (inactive)
COC(=O)c1c(C)cccc1C1CN=NC12Cc1cc(C)c(C)cc1C2=O (stereo unspecified)	27.8 µM (inactive)	> 100 µM (inactive)	59.6 µM (inactive)	17.5 µM (inactive)	36.8 µM (inactive)	33.6 µM (inactive)	27.9 µM (inactive)	25.6 µM (inactive)	57.8 µM (inactive)	19.2 µM (inactive)	27.4 µM (inactive)	52 µM (inactive)	75.3 µM (inactive)	44.5 µM (inactive)		40.6 µM (inactive)		37.8 µM (inactive)
CCOC(=O)c1cc(C#N)[nH]c1-c1ccsc1	31.7 µM (inactive)	24.3 µM (inactive)	17.6 µM (inactive)	16.4 µM (inactive)	28.8 µM (inactive)	14.3 µM (inactive)	23.1 µM (inactive)	33.9 µM (inactive)	37.4 µM (inactive)	30.3 µM (inactive)	32.4 µM (inactive)	35.6 µM (inactive)	54.7 µM (inactive)	56.1 µM (inactive)	11.8 µM (inactive)		42.7 µM (inactive)	21.5 µM (inactive)
O=C(O)CSC(NC(=O)C(C(F)(F)F)C(F)(F)F)(C(F)(F)F)C(F)(F)F	> 100 µM (inactive)		> 100 µM (inactive)	> 100 µM (inactive)	> 100 µM (inactive)		> 100 µM (inactive)	> 100 µM (inactive)			> 100 µM (inactive)		> 100 µM (inactive)	> 100 µM (inactive)	> 100 µM (inactive)	> 100 µM (inactive)	71 µM (inactive)	> 100 µM (inactive)
